Values after ≈ are worked out from the molar mass of the structure shown.
Key:
Staphylococcus aureus [1] = assay: Antibacterial activity against Staphylococcus aureus ATCC 25923 incubated for 24 hrs by CLSI based broth microdilution assay; type: functional
Staphylococcus aureus [2] = assay: Antibacterial activity against Staphylococcus aureus USA 300 incubated for 24 hrs by CLSI based broth microdilution assay; type: functional
Staphylococcus aureus [3] = assay: Antibacterial activity against TMP-resistant Staphylococcus aureus BHKS 227 incubated for 24 hrs by CLSI based broth microdilution assay; type: functional
Staphylococcus aureus [4] = assay: Antibacterial activity against TMP-resistant Staphylococcus aureus BHKS 721 incubated for 24 hrs by CLSI based broth microdilution assay; type: functional
Staphylococcus aureus [5] = assay: Antibacterial activity against TMP-resistant Staphylococcus aureus BHKS 723 incubated for 24 hrs by CLSI based broth microdilution assay; type: functional
[6] = Cytotoxicity against HEK293 cells assessed as inhibition rate of cell growth at 100 uM incubated for 24 hrs by CCK8 assay relative to control; type: toxicity, cell-based; conditions: human
[7] = Cytotoxicity against human NCM460 cells assessed as inhibition rate of cell growth at 100 uM incubated for 24 hrs by CCK8 assay relative to control; type: toxicity, cell-based
[8] = test system: Dihydrofolate reductase (Staphylococcus aureus); conditions: dose 100.0 nM

SMILES	MIC (Staphylococcus aureus [1]) [µg/mL]	MIC (Staphylococcus aureus [2]) [µg/mL]	MIC (Staphylococcus aureus [3]) [µg/mL]	MIC (Staphylococcus aureus [4]) [µg/mL]	MIC (Staphylococcus aureus [5]) [µg/mL]	inhibition at 24 h, 100 µM [6] [%]	inhibition at 24 h, 100 µM [7] [%]	inhibition [8] [%]
CCCCCCOc1cc(C(C)C)c(Oc2cnc(N)nc2N)cc1I	1 (≈ 2.13 µM)	1 (≈ 2.13 µM)	8 (≈ 17 µM)	8 (≈ 17 µM)	4 (≈ 8.5 µM)	41.5	66	42.9
COc1cc(C(C)C)c(Oc2cnc(N)nc2N)cc1-c1cccc(Cl)c1	0.063 (≈ 0.164 µM)	0.063 (≈ 0.164 µM)	1 (≈ 2.6 µM)	4 (≈ 10.4 µM)	4 (≈ 10.4 µM)	29.3	18.8	67.2
CCC(C)Oc1cc(C(C)C)c(Oc2cnc(N)nc2N)cc1I (stereo not given)	0.016 (≈ 0.0362 µM)	0.016 (≈ 0.0362 µM)	1 (≈ 2.26 µM)	4 (≈ 9.04 µM)	4 (≈ 9.04 µM)	44.6	70.7	50.8
COc1cc(C(C)C)c(Oc2cnc(NC(C)=O)nc2NC(C)=O)cc1I	> 32	> 32	> 32	> 32	> 32	26.7	18.2	32.6
COc1cc(C(C)C)c(Oc2cnc(N)nc2N)cc1-c1ccncc1	1 (≈ 2.85 µM)	1 (≈ 2.85 µM)	4 (≈ 11.4 µM)	> 32	32 (≈ 91.1 µM)	2.09	6.02	37.2
CCc1cc(Oc2cnc(N)nc2N)c(C(C)CC)cc1OC (stereo not given)	1 (≈ 3.16 µM)	1 (≈ 3.16 µM)	4 (≈ 12.6 µM)	16 (≈ 50.6 µM)	32 (≈ 101 µM)	23.2	48.4	4.32
COc1cc(C(C)C)c(Oc2cnc(N)nc2N)cc1-c1ccc(C(F)(F)F)c(Cl)c1	1 (≈ 2.21 µM)	2 (≈ 4.42 µM)	4 (≈ 8.83 µM)	4 (≈ 8.83 µM)	4 (≈ 8.83 µM)	42.1	41.9	65.7
COc1cccc(OC)c1C(=O)N[C@@H]1C(=O)N2[C@@H]1SC(C)(C)[C@@H]2C(=O)O [METHICILLIN]	1 (≈ 2.63 µM)	128 (≈ 336 µM)	64 (≈ 168 µM)	1 (≈ 2.63 µM)	1 (≈ 2.63 µM)			
CC(C)CCOc1cc(C(C)C)c(Oc2cnc(N)nc2N)cc1I	0.125 (≈ 0.274 µM)	0.125 (≈ 0.274 µM)	2 (≈ 4.38 µM)	8 (≈ 17.5 µM)	8 (≈ 17.5 µM)	64	35.6	79.6
CC(C)c1cc(OCC2CC2)c(-c2ccc(OC(F)(F)F)cc2)cc1Oc1cnc(N)nc1N	0.5 (≈ 1.05 µM)	0.5 (≈ 1.05 µM)	4 (≈ 8.43 µM)	2 (≈ 4.22 µM)	4 (≈ 8.43 µM)	22.9	31.3	78.9
CC(C)c1cc(OCC2CC2)c(-c2cc(Cl)cc(Cl)c2)cc1Oc1cnc(N)nc1N	0.5 (≈ 1.09 µM)	0.5 (≈ 1.09 µM)	2 (≈ 4.35 µM)	2 (≈ 4.35 µM)	4 (≈ 8.71 µM)	27.5	35.8	89.2
CCC(C)c1cc(OC)c(I)cc1Oc1cnc(N)nc1N (stereo not given)	0.125 (≈ 0.302 µM)	0.125 (≈ 0.302 µM)	1 (≈ 2.41 µM)	8 (≈ 19.3 µM)	16 (≈ 38.6 µM)	28.5	62.7	56.3
CC(C)c1cc(OCC2CCCCC2)c(I)cc1Oc1cnc(N)nc1N	0.5 (≈ 1.04 µM)	0.5 (≈ 1.04 µM)	> 32	32 (≈ 66.3 µM)	> 32	36.7	65	59.8
COc1cc(Cc2cnc(N)nc2N)cc(OC)c1OC [TRIMETHOPRIM]	0.5 (≈ 1.72 µM)	0.5 (≈ 1.72 µM)	32 (≈ 110 µM)	16 (≈ 55.1 µM)	16 (≈ 55.1 µM)	2.93	8.06	
COc1cc(C(C)C)c(Oc2cnc(N)nc2N)cc1-c1cc(C)cc(C)c1	0.5 (≈ 1.32 µM)	0.5 (≈ 1.32 µM)	2 (≈ 5.28 µM)	8 (≈ 21.1 µM)	16 (≈ 42.3 µM)	29.7	68.8	64.6
CCCCOc1cc(C(C)C)c(Oc2cnc(N)nc2N)cc1-c1cc(Cl)cc(Cl)c1	2 (≈ 4.33 µM)	1 (≈ 2.17 µM)	8 (≈ 17.3 µM)	8 (≈ 17.3 µM)	8 (≈ 17.3 µM)	43	42.5	75
COc1cc(C(C)C)c(Oc2cnc(N)nc2N)cc1-c1ccc(-c2ccccc2)cc1	0.5 (≈ 1.17 µM)	0.5 (≈ 1.17 µM)	2 (≈ 4.69 µM)	4 (≈ 9.38 µM)	4 (≈ 9.38 µM)	31.5	66	26.8
CC(C)c1cc(O)c(I)cc1Oc1cnc(N)nc1N	0.125 (≈ 0.324 µM)	0.125 (≈ 0.324 µM)	0.5 (≈ 1.29 µM)	4 (≈ 10.4 µM)	4 (≈ 10.4 µM)	30.1	3	61.7
COc1cc(C(C)C)c(Oc2cnc(N)nc2N)cc1-c1ccc(O)cc1	0.125 (≈ 0.341 µM)	0.063 (≈ 0.172 µM)	0.5 (≈ 1.36 µM)	1 (≈ 2.73 µM)	8 (≈ 21.8 µM)	22.9	53.1	72.3
COc1cc(C(C)C)c(Oc2cnc(N)nc2N)cc1-c1cc(C(F)(F)F)cc(C(F)(F)F)c1	4 (≈ 8.22 µM)	8 (≈ 16.4 µM)	8 (≈ 16.4 µM)	8 (≈ 16.4 µM)	8 (≈ 16.4 µM)	38.6	64.2	> 100
COc1cc(OC)cc(-c2cc(Oc3cnc(N)nc3N)c(C(C)C)cc2OC)c1	2 (≈ 4.87 µM)	2 (≈ 4.87 µM)	8 (≈ 19.5 µM)	32 (≈ 78 µM)	32 (≈ 78 µM)	29.7	66.8	40.5
CCCCOc1cc(C(C)C)c(Oc2cnc(N)nc2N)cc1-c1ccc(C(F)(F)F)cc1	2 (≈ 4.34 µM)	4 (≈ 8.69 µM)	4 (≈ 8.69 µM)	4 (≈ 8.69 µM)	4 (≈ 8.69 µM)	40.2	42.3	90.9
CCCCOc1cc(C(C)C)c(Oc2cnc(N)nc2N)cc1-c1ccc(C(C)C)cc1	1 (≈ 2.3 µM)	2 (≈ 4.6 µM)	8 (≈ 18.4 µM)	4 (≈ 9.2 µM)	2 (≈ 4.6 µM)	46.6	40.9	64
CCCC(C)Oc1cc(C(C)C)c(Oc2cnc(N)nc2N)cc1I (stereo not given)	0.063 (≈ 0.138 µM)	0.063 (≈ 0.138 µM)	2 (≈ 4.38 µM)	4 (≈ 8.77 µM)	4 (≈ 8.77 µM)	55.6	11.5	31.7
COc1cc(C(C)C)c(Oc2cnc(N)nc2N)cc1-c1ccccc1	0.5 (≈ 1.43 µM)	0.25 (≈ 0.713 µM)	2 (≈ 5.71 µM)	32 (≈ 91.3 µM)	32 (≈ 91.3 µM)	49.2	74.2	
